Earlier results on 3 substances are cited in PMC6444188, “Systemic Administration of Avian Defensin 7: Distribution, Cellular Target, and Antibacterial Potential in Mice” (Frontiers in Microbiology, 2019).

In one series the test system is S. Typhi. To be noted: intraperitoneal mouse model of salmonellosis; ref Maiti et al., 2014. From the text:
There is a lack of knowledge on the ability of defensins to exert antimicrobial activity toward MDR bacterial strains. […] There are several mouse salmonellosis models available to assess vaccine and antimicrobials efficacy ([Higginson et al., 2016]). These range from models of colonization or lethality, through infection by the oral, ...

The subject of another series is S. Typhimurium. An excerpt:
The ability of AvBD7 to reduce bacterial load in the liver of Salmonella-infected animals is in agreement with the distribution of this defensin to this organ. Indeed, even if most part of the fluorescence-labeled AvBD7 injected in the peritoneal cavity of mice reached bloodstream, kidneys and was eliminated through the urinary tract, a substantial amount was found in the liver, the second most fluorescent organ after the kidneys.

For the next series, the system named is proteases. From the text: AvBDs are characterized by cationicity and structure with the typical beta-sheet stabilized by three disulfide bonds between six highly conserved cysteines while primary sequences are diverse ([Derache et al., 2012]).
Setting [1] is: 30 mg/kg i.p., S. Typhimurium-infected mice, ref Benincasa et al., 2010.

Ends that are not written are not given here. Bounds are passed on as bounds.

As to “HBD1: human beta-defensin (DHYNCVSSGGQCLYSACPIFTKIQGTCYRGKAKCCK; ends and bridges not checked; cysteine pairing not given here; UniProt P60022 33-68, looked up)”, the “effect on disease and bacterial load” value in the series on S. Typhi is “efficient in attenuating the disease and the bacterial load”. For “Bac7: proline-rich antimicrobial peptide (RRIRPRPPRLPRPRPRPLPFPRPGPRPIPRPLPFP; Bac7; UniProt P19661 131-165, looked up, fragment)”, in the series with S. Typhimurium (setting [1]), the “effect on liver bacterial load” value is reported as “without significant reduction of the liver bacterial load” and the “effect on mice survival” value is “beneficial effect on mice survival”. For the same substance, in the series on S. Typhimurium (mouse, in vivo, ip), the “time to elimination following i.p. injection” value is on record as at most 5 h. Consider “HBD3: human beta-defensin (GIINTLQKYYCRVRGGRCAVLSCLPKEEQIGKCSTRGRKCCRRKK; ends and bridges not checked; cysteine pairing not given here; UniProt P81534 23-67, looked up)”, for which the stability toward proteases result in the series with proteases is on record as “can be inactivated by proteases”.
